Test results published in US20260200849A1, “CATIONIC LIPIDS AND PREPARATION METHOD THEREOF” (RiboX Therapeutics HK Limited, priority 2024, published 2026).
“And” between values parts separate entries of the source, which are not always exact repeats. Equal entries are not always repeated. Where two headings read alike, the source gives them in different places.

What was measured:
MCP-1 = assay: In vivo tolerability by IM: serum MCP-1 by Luminex; conditions: IM 1.0 mg/kg, male C57BL/6J mice N=3, Formulation 001, RNA 331
Experimental: (§1) 6-8 week old, male C57BL/6J mice (N=3) were injected with 1.0 mg*kg−1 of RNA-LNPs encoding for firefly-luciferase by intramuscular injection. At 2- and 24-hours post injection, about 40 μL blood was harvested and immediately added to the procoagulant containing tube. Stand for 30 min at room temperature and then centrifuged at 2500 g×10 min to obtain serum. About 15 μL serum samples were aliquoted for cytokine (MCP-1 and IL-6) detection by Luminex (ProcartaPlex Mouse 2-plex, Thermo). PBS group as negative control.

Balb/c mice = assay: In vivo expression by IV, 0.05 mg/kg luciferase RNA-LNPs, IVIS luminescence; conditions: female Balb/c mice, 0.05 mg*kg−1 intravenous; for Whole body at 24 h (p/s) (Mean) / Whole body at 72 h (p/s) (Mean): Formulation No. 010, RNA No. 331; for Whole body at 24 h (p/s) (Mean): 24 hours post injection; for Whole body at 72 h (p/s) (Mean): 72 hours post injection
How it was run: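 IVIS bioluminescence was read after IP luciferin (15 mg/ml): whole-body at 24 and 72 h, or whole-body/liver/spleen at 24 h. Dosing was a single IV injection of 0.05 mg*kg−1 RNA-LNPs encoding firefly luciferase into 7-8 week old female Balb/c mice, N=3.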

C57BL/6J mice [1] = assay: In vivo expression by ID, whole-body/injection site skin/lymph node luminescence; conditions: intradermal 0.15 mg/kg, 72 h post injection, female C57BL/6J mice N=3, Formulation 001, RNA 331
Experimental: 7-8 week old, female C57BL/6J mice (N=3) were injected with 0.15 mg*kg−1 of RNA-LNPs encoding for firefly-luciferase by intradermal injection. At 72-hours post injection, animals were intraperitoneally injected with 15 mg/mi of Luciferin substrate and whole-body/injection site skin/lymph node luminescence were determined by a bioluminescent in vivo imaging system (IVIS).

Hep G2 cells [2] = assay: In vitro expression: luciferase activity in Hep G2 cells transfected with RNA-LNPs; type: cell-based; conditions: 100 ng/mL RNA-LNPs, 72 hours post transfection
Experimental: 2E5 Hep G2 cells were transfected with 100 ng/mL of RNA-LNPs encoding for firefly-luciferase. At 72 hours post transfection, the cells were washed and lysed. The luciferase expression (2-well repeat) was determined in the cell lysates with the luciferase assay reagent kit (Promega), according to the kit protocol, luciferase activity was measured by a luminometer.

IL-6 = assay: In vivo tolerability by IM: serum IL-6 by Luminex; conditions: IM 1.0 mg/kg, male C57BL/6J mice N=3, Formulation 001, RNA 331
Experimental: as §1

[3] = RNA encapsulation efficacy (EE %) by Quant-IT Ribogreen kit; type: physicochemical; conditions: LNP
Experimental: (§2) The LNP size and polydispersity index (PDI), determined by dynamic light scattering (DLS), and zeta potential were measured by a Zetasizer machine (Malvern). RNA concentration and encapsulation efficacy (EE %) were analyzed by the Quant-IT Ribogreen kit by calculating the percentage encapsulation at 100%—(RNA-LNPs/RNA-LNPs with Triton X-100).

C57BL/6J mice [4] = assay: In vivo expression by IM, luciferase RNA-LNPs, whole-body/injection site muscle/organ luminescence; conditions: IM 1.0 mg/kg, 24 h post injection, male C57BL/6J mice N=3, Formulation 001, RNA 331
Experimental: 6-8 week old, male C57BL/6J mice (N=3) were injected with 1.0 mg*kg−1 of RNA-LNPs encoding for firefly-luciferase by intramuscular injection. At 24-hours post injection, animals were intraperitoneally injected with 15 mg/ml of Luciferin substrate and whole-body/injection site muscle/liver/spleen/kidney/heart/lung luminescence were determined by a bioluminescent in vivo imaging system (IVIS).

[5] = LNP size and polydispersity index (PDI) by dynamic light scattering (Zetasizer); type: physicochemical; conditions: for Size (nm): RNA No. 331
Experimental: as §2

Hep G2 cells [6] = assay: In vitro toxicity: Hep G2 cell viability by CellTiter-Glo; type: cell-based; conditions: 72 hours post transfection, cell only = 100%
Experimental: 2E5 Hep G2 cells were transfected with 1 μg/mL RNA-LNPs. At 72 hours post transfection, cell viability (2-well repeat) was determined with the CellTiter-Glo® reagent kit, according to the kit protocol, measured by a luminometer. Cell only as control (100%).
The cell viability was calculated according to the following formula: […]

[7] = In vivo lipid metabolism by IV: ionizable lipid concentration in plasma and liver by LC-MS/MS; parameters: species or system Sprague-Dawley (SD) rats; conditions: IV 0.15 mg/kg RNA-LNPs (hEPO), male SD rats, individual animals N=3; for concentration at 6 h / concentration at 1 h / concentration at 168 h: male, Sprague-Dawley, rat, iv, 0.15 mg/kg
How it was run: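 Male SD rats, 7-8 weeks old (N=3), given 0.15 mg*kg−1 hEPO-encoding RNA-LNPs IV. Plasma sampled at 1, 6, 96 and 168 h and liver at 6 and 168 h terminally; ionizable lipid quantified by LC-MS/MS, LLOQ 1 ng/mL plasma, 11 ng/g liver.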

[8] = Formulation No. 010, RNA No. 331 (firefly-luciferase)
[9] = Formulation No. 001, RNA No. 019 (hEPO)
[10] = Formulation No. 001, RNA No. 331
[11] = Formulation No. 010, RNA No. 331
[12] = Formulation No. 010 (Ionizable lipid:DSPC:cholesterol:DSPE-PEG2000 = 38:30:30:2, N/P 6)
[13] = 1 μg/mL RNA-LNPs, Formulation 001, RNA 331
[14] = Formulation No. 010, RNA No. 331, 1 μg/mL RNA-LNPs
[15] = liver, 6 h post injection, read-out: Liver (ng/g), ionizable lipid concentration
[16] = Formulation No. 001, RNA No. 331, 24-hours post injection

| Structure (SMILES) | MCP-1 at 2 h (MCP-1) | MCP-1 at 24 h (MCP-1) | Whole body at 24 h (p/s) (Mean) (Balb/c mice) | Whole body at 72 h (p/s) (Mean) (Balb/c mice) | Injection site Skin (p/s) (C57BL/6J mice [1]) | Lymph node (p/s) (C57BL/6J mice [1]) | Whole body (p/s) (C57BL/6J mice [1]) | In vitro Expression (Mean) (Hep G2 cells [2]; Formulation 001, RNA 331) | In vitro Expression (Mean) (Hep G2 cells [2]; [8]) | IL-6 at 2 h (IL-6) | IL-6 at 24 h (IL-6) | EE (%) [3, 9] | EE (%) [3, 10] | EE (%) [3, 11] | Heart (p/s) (C57BL/6J mice [4]) | Injection site muscle (p/s) (C57BL/6J mice [4]) | Kidney (p/s) (C57BL/6J mice [4]) | PDI [5, 9] | Size [5, 9] | PDI [5, 10] | further results |
| --- | --- | --- | --- | --- | --- | --- | --- | --- | --- | --- | --- | --- | --- | --- | --- | --- | --- | --- | --- | --- | --- |
| CCCCC/C=C\C/C=C\CCCCCCCC(=O)NC(COC(=O)NCCN1CCCCC1)C(=O)OCCCCCCCC(=O)OC(CCCCCCCC)CCCCCCCC (stereo not shown) [Lipid 549] | 299 pg/mL | 3980 pg/mL | 2.75E+08 p/s | 7.85E+07 p/s | 3.41E+06 p/s | 3.17E+06 p/s | 4.38E+07 p/s | 7.02E+05 | 5.75E+05 | 27 pg/mL | 146 pg/mL | 94.25% | 94.58% | 96.68% | 8.09E+05 p/s | 2.75E+08 p/s | 1.23E+07 p/s | 0.04 | 64.53 nm | 0.04 | Liver (p/s) (C57BL/6J mice [4]): 1.76E+08 p/s; Lung (p/s) (C57BL/6J mice [4]): 1.24E+06 p/s; Spleen (p/s) (C57BL/6J mice [4]): 6.26E+07 p/s; Whole body (p/s) (C57BL/6J mice [4]): 1.10E+09 p/s; Size [5, 10]: 61.34 nm; Size (nm) [5, 12]: 57.35 nm; PDI [5, 11]: 0.13; In vitro cell viability (%) (Mean) (Hep G2 cells [6]; [13]): 79.09%; In vitro cell viability (%) (Mean) (Hep G2 cells [6]; [14]): 88.89% |
| CCCCCCCC/C=C\CCCCCCCC(=O)NC(COC(=O)NCCN1CCCCC1)C(=O)OCCCCCCCCOC(=O)C(CCCCCC)CCCCCCCC (stereo not shown) [Lipid 700] | 281 pg/mL | 3270 pg/mL | 3.40E+08 p/s | 1.34E+08 p/s | 1.75E+07 p/s | 1.57E+06 p/s | 8.00E+07 p/s | 7.16E+05 | 3.61E+05 | 15 pg/mL | 143 pg/mL | 96.00% | 94.45% | 96.73% | 1.79E+05 p/s | 3.07E+08 p/s | 9.03E+05 p/s | 0.06 | 68.99 nm | 0.06 | Liver (p/s) (C57BL/6J mice [4]): 8.73E+07 p/s; Lung (p/s) (C57BL/6J mice [4]): 3.11E+05 p/s; Spleen (p/s) (C57BL/6J mice [4]): 1.21E+07 p/s; Whole body (p/s) (C57BL/6J mice [4]): 5.65E+08 p/s; Size [5, 10]: 62.57 nm; Size (nm) [5, 12]: 55.29 nm; PDI [5, 11]: 0.07; In vitro cell viability (%) (Mean) (Hep G2 cells [6]; [13]): 78.82%; In vitro cell viability (%) (Mean) (Hep G2 cells [6]; [14]): 99.10%; Plasma (ng/mL), ionizable lipid concentration ([7]; 1 h post injection): 1272 ng/mL and 1635 ng/mL; Liver (ng/g), ionizable lipid concentration ([7]; 6 h post injection): 25720 ng/g and 25028 ng/g; Plasma (ng/mL), ionizable lipid concentration ([7]; 6 h post injection): 359 ng/mL and 641 ng/mL and 966 ng/mL; Plasma (ng/mL), ionizable lipid concentration ([7]; 96 h post injection): 5.84 ng/mL and 4.4 ng/mL and 28.6 ng/mL; Liver (ng/g), ionizable lipid concentration ([7]; 168 h post injection): 696.6 ng/g and 191.6 ng/g and 236.8 ng/g; Plasma (ng/mL), ionizable lipid concentration ([7]; 168 h post injection): 1.24 ng/mL and 9.51 ng/mL; concentration at 6 h [7, 15]: 26800 ng/g; concentration at 1 h ([7]; plasma, 1 h post injection): 1440 ng/mL |
| CCCCCCCCC(CCCCCC)C(=O)OCCCCCCCCOC(=O)NC(COC(=O)NCCN1CCCCC1)C(=O)OCCCCCCCCOC(=O)C(CCCCCC)CCCCCCCC (stereo not shown) [Lipid 888] | – | – | – | – | – | – | – | – | – | – | – | 97.48% | 93.81% | – | – | – | – | 0.05 | 59.39 nm | 0.01 | Liver (p/s) (Mean) (Balb/c mice; [16]): 2.18E+08 p/s; Spleen (p/s) (Mean) (Balb/c mice; [16]): 7.61E+07 p/s; Whole body (p/s) (Mean) (Balb/c mice; [16]): 1.35E+09 p/s; In vitro Expression (Mean) (Hep G2 cells [2]; Formulation No. 001, RNA No. 331 (firefly-luciferase)): 4.84E+05; Size (nm) ([5]; Formulation No. 001 (Ionizable lipid:DSPC:cholesterol:DMG-PEG2000 = 50:10:38.5:1.5, N/P 6)): 62.46 nm; In vitro cell viability (%) (Mean) (Hep G2 cells [6]; Formulation No. 001, RNA No. 331, 1 μg/mL RNA-LNPs): 89.73%; Plasma (ng/mL), ionizable lipid concentration ([7]; 1 h post injection): 1635 ng/mL and 1440 ng/mL; Liver (ng/g), ionizable lipid concentration ([7]; 6 h post injection): 31120 ng/g and 47483 ng/g; Plasma (ng/mL), ionizable lipid concentration ([7]; 6 h post injection): 966 ng/mL and 975 ng/mL; Plasma (ng/mL), ionizable lipid concentration ([7]; 96 h post injection): 28.6 ng/mL (2×) and 12.9 ng/mL; Liver (ng/g), ionizable lipid concentration ([7]; 168 h post injection): 2277 ng/g and 2814 ng/g; Plasma (ng/mL), ionizable lipid concentration ([7]; 168 h post injection): 9.51 ng/mL and 8.26 ng/mL; concentration at 6 h [7, 15]: 48800 ng/g; concentration at 168 h ([7]; liver, 168 h post injection, read-out: Liver (ng/g), ionizable lipid concentration): 1640 ng/g; concentration at 1 h ([7]; plasma, 1 h post injection): 1640 ng/mL; concentration at 6 h ([7]; plasma, 6 h post injection, read-out: Plasma (ng/mL), ionizable lipid concentration): 966 ng/mL; concentration at 168 h ([7]; plasma, 168 h post injection, read-out: Plasma (ng/mL), ionizable lipid concentration): 9.51 ng/mL |
